Reference: ChEMBL document CHEMBL2146429, “Potassium channel modulators as possible treatment for pain: patent highlight” (ACS Med Chem Lett, 2012)

Target: Voltage-gated potassium channel, KQT; KCNQ2(Kv7.2)/KCNQ3(Kv7.3) (Homo sapiens, UniProt O43525+O43526)
Test: Activation of KCNQ2/Q3
Assay type: protein-complex assay

Chain of Voltage-gated potassium channel, KQT; KCNQ2(Kv7.2)/KCNQ3(Kv7.3) (O43526 whole entry): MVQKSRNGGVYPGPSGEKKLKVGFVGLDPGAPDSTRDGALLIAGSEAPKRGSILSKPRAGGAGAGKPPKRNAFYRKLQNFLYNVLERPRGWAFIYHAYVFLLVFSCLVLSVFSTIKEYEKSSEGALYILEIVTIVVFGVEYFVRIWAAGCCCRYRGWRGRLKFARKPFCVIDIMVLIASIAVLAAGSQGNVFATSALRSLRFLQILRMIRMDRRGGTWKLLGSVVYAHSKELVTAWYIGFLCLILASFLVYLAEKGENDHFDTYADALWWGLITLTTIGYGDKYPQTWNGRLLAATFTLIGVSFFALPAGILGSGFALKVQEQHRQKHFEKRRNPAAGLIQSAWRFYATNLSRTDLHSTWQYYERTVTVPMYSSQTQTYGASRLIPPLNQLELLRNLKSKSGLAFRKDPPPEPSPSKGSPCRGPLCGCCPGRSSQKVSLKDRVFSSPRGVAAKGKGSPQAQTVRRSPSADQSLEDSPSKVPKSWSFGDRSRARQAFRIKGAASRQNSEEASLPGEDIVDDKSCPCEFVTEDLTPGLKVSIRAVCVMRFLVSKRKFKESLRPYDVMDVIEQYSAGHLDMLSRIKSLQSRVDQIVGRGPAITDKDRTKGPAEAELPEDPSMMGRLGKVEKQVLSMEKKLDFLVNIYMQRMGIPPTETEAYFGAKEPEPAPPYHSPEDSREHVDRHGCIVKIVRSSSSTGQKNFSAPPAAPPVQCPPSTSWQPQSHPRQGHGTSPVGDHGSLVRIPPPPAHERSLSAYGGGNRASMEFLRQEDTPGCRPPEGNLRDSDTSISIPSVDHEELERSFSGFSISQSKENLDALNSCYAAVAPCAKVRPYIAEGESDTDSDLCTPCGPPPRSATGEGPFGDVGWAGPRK
Chain of Voltage-gated potassium channel, KQT; KCNQ2(Kv7.2)/KCNQ3(Kv7.3) (O43525 whole entry): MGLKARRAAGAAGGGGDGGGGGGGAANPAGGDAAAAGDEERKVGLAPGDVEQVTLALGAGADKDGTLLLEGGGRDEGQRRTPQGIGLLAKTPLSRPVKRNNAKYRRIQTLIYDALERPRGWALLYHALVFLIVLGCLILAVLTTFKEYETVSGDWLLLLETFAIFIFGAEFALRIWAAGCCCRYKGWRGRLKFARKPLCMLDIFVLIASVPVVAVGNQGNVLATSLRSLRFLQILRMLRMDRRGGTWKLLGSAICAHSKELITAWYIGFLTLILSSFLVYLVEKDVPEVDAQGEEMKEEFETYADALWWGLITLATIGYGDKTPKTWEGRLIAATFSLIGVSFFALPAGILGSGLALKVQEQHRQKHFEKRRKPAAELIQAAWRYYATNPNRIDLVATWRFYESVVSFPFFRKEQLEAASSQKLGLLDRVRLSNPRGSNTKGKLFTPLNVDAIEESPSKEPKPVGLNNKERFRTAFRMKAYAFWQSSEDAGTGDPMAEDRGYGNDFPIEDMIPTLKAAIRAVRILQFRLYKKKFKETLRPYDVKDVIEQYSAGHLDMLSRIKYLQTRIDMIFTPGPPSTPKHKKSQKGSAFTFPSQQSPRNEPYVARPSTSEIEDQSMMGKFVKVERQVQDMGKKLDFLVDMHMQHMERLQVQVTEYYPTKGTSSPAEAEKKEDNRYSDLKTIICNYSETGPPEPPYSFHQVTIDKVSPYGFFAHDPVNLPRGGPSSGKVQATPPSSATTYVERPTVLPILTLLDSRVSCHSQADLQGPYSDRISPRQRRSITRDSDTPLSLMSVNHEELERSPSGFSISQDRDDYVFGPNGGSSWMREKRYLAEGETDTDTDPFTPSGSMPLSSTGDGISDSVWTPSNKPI

| EC50 | SMILES |
| --- | --- |
| < 500 nM | CC(C)(C)CC(=O)Nc1nn2cccnc2c1-c1ccc(OC(F)(F)F)cc1 |
| < 1000 nM | CC(C)(C)CC(=O)Nc1nn2cccnc2c1-c1ccc(F)cc1 |
| < 100 nM | Cc1cnc2c(Cc3ccc(F)cc3)c(NC(=O)CC3CCCC3)nn2c1 |
